In patent US20030162777A1, “Novel N-acylated heterocycles” (Recordati S.A., priority 2001, published 2003):

Target: T1, human 5HT1A-serotonergic receptor (Homo sapiens, UniProt P08908)
T1 construct: expressed in transfected cells; host or cells: HeLa (human cell line), stably transfected; cell membranes used
T1 sequence (P08908 1-422): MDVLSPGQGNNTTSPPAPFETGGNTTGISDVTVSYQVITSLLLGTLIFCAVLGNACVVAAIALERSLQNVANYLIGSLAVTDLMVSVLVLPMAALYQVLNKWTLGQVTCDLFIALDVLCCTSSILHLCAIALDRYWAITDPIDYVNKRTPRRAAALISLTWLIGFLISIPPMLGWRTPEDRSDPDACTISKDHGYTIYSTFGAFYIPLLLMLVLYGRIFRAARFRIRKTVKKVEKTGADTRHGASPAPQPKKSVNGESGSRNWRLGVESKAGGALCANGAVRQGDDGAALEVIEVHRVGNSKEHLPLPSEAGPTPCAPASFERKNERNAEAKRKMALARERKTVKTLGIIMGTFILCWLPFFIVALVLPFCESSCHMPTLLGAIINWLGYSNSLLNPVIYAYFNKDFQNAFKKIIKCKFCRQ
Assay: Radioligand binding to recombinant 5-HT1A receptors
Settings: [3H]8-OH-DPAT 1 nM, membranes of HeLa cells with human 5-HT1A receptor; Ki from IC50 by Cheng & Prusoff; read-out: Binding affinity for 5HT1A receptors, Ki
In short: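 Displacement of 1 nM [3H]8-OH-DPAT (30 min, 30 °C, Tris-HCl pH 7.4 with MgCl2 and pargyline) from recombinant human 5-HT1A in transfected HeLa membranes, stopped by filtration. Specific binding defined against 10 μM 5-HT; IC50 by nonlinear fitting, then Ki by Cheng–Prusoff.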

Row | Ki [nM] | SMILES
1 | 19.6 | O=C(C1CCCCC1)N1c2ccccc2CCC1CN1CCN(c2ccc(F)cc2)CC1 (stereo not drawn) [Example 72A26, 1-(1-Cyclohexanecarbonyl-1,2,3,4-tetrahydroquinolin-2-ylmethyl)-4-(4-fluorophenyl)piperazine]
2 | 10.7 | O=C(C1CCCCC1)N1c2ccc(F)cc2CCC1CN1CCN(c2ccccc2OCC(F)(F)F)CC1 (stereo not drawn) [Example 5, 1-(1-Cyclohexanecarbonyl-6-fluoro-1,2,3,4-tetrahydroquinoline-2-ylmethyl)-4-[2-(2,2,2-trifluoroethoxy)phenyl]piperazine]
3 | 15.3 | COc1cccc(N2CCN(CC3CCc4ccccc4N3C(=O)C3CCCCC3)CC2)c1 (stereo not drawn) [Example 72A25, 1-(1-Cyclohexanecarbonyl-1,2,3,4-tetrahydroquinolin-2-ylmethyl)-4-(3-methoxyphenyl)piperazine]
4 | 8.1 | O=C(C1CCCCC1)N1c2ccccc2CCC1CN1CCN(c2cc(Cl)ccc2F)CC1 (stereo not drawn) [Example 60A1, 1-(5-Chloro-2-fluorophenyl)-4-(1-cyclohexanecarbonyl-1,2,3,4-tetrahydroquinoline-2-ylmethyl)piperazine]
5 | 38.5 | O=C(C1CCCCC1)N1c2ccccc2CCC1CN1CCN(c2cccc(O)c2)CC1 (stereo not drawn) [Example 72A17, 1-(1-Cyclohexanecarbonyl-1,2,3,4-tetrahydroquinolin-2-ylmethyl)-4-(3-hydroxyphenyl)piperazine]
6 | 10.1 | CC(=O)n1ccc2c(N3CCN(CC4CCc5ccccc5N4C(=O)C4CCCCC4)CC3)cccc21 (stereo not drawn) [Example 35A25, 1-(1-Acetyl-4-indolyl)-4-(1-cyclohexanecarbonyl-1,2,3,4-tetrahydroquinoline-2-ylmethyl)piperazine]
7 | 6.5 | COc1ccc(C(F)(F)F)cc1N1CCN(CC2CCc3ccccc3N2C(=O)C2CCCCC2)CC1 (stereo not drawn) [Example 60A9, 1-(1-Cyclohexanecarbonyl-1,2,3,4-tetrahydroquinoline-2-ylmethyl)-4-(2-methoxy-5-trifluoromethylphenyl)piperazine]
8 | 18.2 | COc1cc(C)ccc1N1CCN(CC2CCc3ccccc3N2C(=O)C2CCCCC2)CC1 (stereo not drawn) [Example 86A, 1-(1-Cyclohexanecarbonyl-1,2,3,4-tetrahydroquinoline-2-ylmethyl)-4-(2-methoxy-4-methylphenyl)piperazine]
9 | 0.7 | O=C(C1CCCCC1)N1c2ccccc2CCC1CN1CCN(c2ccccc2OCC(F)(F)F)CC1 (stereo not drawn) [Example 4, 1-(1-Cyclohexanecarbonyl-1,2,3,4-tetrahydroquinoline-2-ylmethyl)-4-[2-(2,2,2-trifluoroethoxy)phenyl]piperazine]
10 | 17.3 | O=C(C1CCCCC1)N1c2c(F)cccc2CCC1CN1CCN(c2cccc3[nH]ccc23)CC1 (stereo not drawn) [Example 38, 1-(1-Cyclohexanecarbonyl-8-fluoro-1,2,3,4-tetrahydroquinoline-2-ylmethyl)-4-(4-indolyl)piperazine]
11 | 19.8 | O=C(C1CCCCC1)N1c2ccccc2CCC1CN1CCC(c2ccccc2F)CC1 (stereo not drawn) [Example 72A40, 1-(1-Cyclohexanecarbonyl-1,2,3,4-tetrahydroquinolin-2-!ylmethyl)-4-(2-fluorophenyl)piperidine]

More lines, now with the values behind:

Row | SMILES | Ki [nM]
12 | COc1cc(F)ccc1N1CCN(CC2CCc3ccccc3N2C(=O)Cc2cccs2)CC1 (stereo not drawn) [Example 74A8, 1-(4-Fluoro-2-methoxyphenyl)-4-[1-(2-thienylacetyl)-1,2,3,4-tetrahydroquinolin-2-ylmethyl]piperazine] | 5.9
13 | COc1ccc(C(=O)N2c3ccccc3CCC2CN2CCN(c3nccc4ccccc34)CC2)cc1 (stereo not drawn) [Example 75A5, 1-(1-Isoquinolinyl)-4-[1-(4-methoxybenzoyl)-1,2,3,4-tetrahydroquinolin-2-ylmethyl]piperazine] | 2.6
14 | CN(CCOc1ccccc1OCC(F)(F)F)CC1CCc2ccccc2N1C(=O)C1CCCCC1 (stereo not drawn) [Example 72A85, N-(1-Cyclohexanecarbonyl-1,2,3,4-tetrahydroquinolin-2-ylmethyl)-2-[2-(2,2,2-trifluoroethoxy)phenoxy]ethylmethylamine] | 3.6
15 | COc1ccc(C(=O)N2c3ccccc3CCC2CN2CCN(c3ccc(F)cc3OC)CC2)cc1 (stereo not drawn) [Example 74A5, 1-(4-Fluoro-2-methoxyphenyl)-4-[1-(4-methoxybenzoyl)-1,2,3,4-tetrahydroquinolin-2-ylmethy]piperazine] | 2
16 | Cc1ccccc1NC(=O)N1c2ccccc2CCC1CN1CCN(c2cccc3c2OCCO3)CC1 (stereo not drawn) [Example 76A12, 1-(2,3-Dihydrobenzo[1,4]dioxin-5-yl)-4-[1-(2-methylphenylaminocarbonyl)-1,2,3,4-tetrahydroquinolin-2-ylmethyl]piperazine] | 8
17 | CC(C)NC(=O)N1c2ccccc2CCC1CN1CCN(c2cccc3[nH]ccc23)CC1 (stereo not drawn) [Example 69A7, 1-(4-Indolyl)-4-[1-(1-methylethylaminocarbonyl)-1,2,3,4-tetrahydroquinoline-2-ylmethyl]piperazine] | 36
18 | O=C(c1ccc(O)cc1)N1c2ccccc2CCC1CN1CCN(c2cccc3[nH]ccc23)CC1 (stereo not drawn) [Example 68A68, 1-[1-(4-Hydroxybenzoyl)-1,2,3,4-tetrahydroquinoline-2-ylmethyl]-4-(4-indolyl)piperazine] | 7.5
19 | CC(C)OCCC(=O)N1c2ccccc2CCC1CN1CCN(c2cccc3[nH]ccc23)CC1 (stereo not drawn) [Example 12, 1-[1-(3-Isopropoxypropionyl)-1,2,3,4-tetrahydroquinoline-2-ylmethyl]-4-(4-indolyl)piperazine] | 47.5
20 | O=C(C1CCCCC1)N1c2ccccc2CCC1CN1CCC(c2ccccc2)CC1 (stereo not drawn) [Example 72A3, 1-(1-Cyclohexanecarbonyl-1,2,3,4-tetrahydroquinolin-2-ylmethyl)-4-phenylpiperidine] | 47.2
21 | CN(CC(=O)N1c2ccccc2CCC1CN1CCN(c2cccc3[nH]ccc23)CC1)C(=O)c1ccccc1 (stereo not drawn) [Example 68A46, 1-[1-[2-(N-Benzoyl-N-methylamino)acetyl]-1,2,3,4-tetrahydroquinoline-2-ylmethyl]-4-(4-indolyl)piperazine] | 34.9
22 | N#Cc1ccc(S(=O)(=O)N2c3ccccc3CCC2CN2CCN(c3cccc4[nH]ccc34)CC2)cc1 (stereo not drawn) [Example 70A5, 1-[1-(4-Cyanophenylsulphonyl)-1,2,3,4-tetrahydroquinoline-2-ylmethyl]-4-(4-indolyl)piperazine] | 40.3
23 | O=C(CCOc1ccccc1)N1c2ccccc2CCC1CN1CCN(c2cccc3[nH]ccc23)CC1 (stereo not drawn) [Example 68A61, 1-(4-Indolyl)-4-[1-(3-phenoxypropionyl)-1,2,3,4-tetrahydroquinoline-2-ylmethyl]piperazine] | 19.7
24 | CC(C)CC(=O)N1c2ccccc2CCC1CN1CCN(c2nccc3ccccc23)CC1 (stereo not drawn) [Example 75A, 1-(1-Isoquinolinyl)-4-[1-(3-methylbutanoyl)-1,2,3,4-tetrahydroquinolin-2-ylmethyl]piperazine] | 3.2
25 | O=C(Nc1ccccc1)N1c2ccccc2CCC1CN1CCN(c2cccc3[nH]ccc23)CC1 (stereo not drawn) [Example 31, 1-(4-Indolyl)-4-(1-phenylaminocarbonyl-1,2,3,4-tetrahydroquinoline-2-ylmethyl)piperazine] | 12.8
26 | COc1ccc(C(=O)N2c3ccccc3CCC2CN(C)CCOc2ccccc2OC)cc1 (stereo not drawn) [Example 77A5, N-[1-(4-Methoxybenzoyl)-1,2,3,4-tetrahydroquinolin-2-ylmethyl]-N-[2-(2-methoxyphenoxy)ethyl]methylamine] | 13.1
27 | COc1cc(F)ccc1N1CCN(CC2CCc3ccccc3N2C(=O)Cc2ccsc2)CC1 (stereo not drawn) [Example 74A9, 1-(4-Fluoro-2-methoxyphenyl)-4-[1-(3-thienylacetyl)-1,2,3,4-tetrahydroquinolin-2-ylmethyl]piperazine] | 38.3
28 | Cc1ccc(S(=O)(=O)N2c3ccccc3CCC2CN2CCN(c3cccc4[nH]ccc34)CC2)cc1 (stereo not drawn) [Example 70A3, 1(4-Indolyl)-4-[1-(4-methylphenylsulphonyl)-1,2,3,4-tetrahydroquinoline-2-ylmethyl]piperazine] | 15.2
29 | O=C(Cc1ccc(Cl)cc1)N1c2ccccc2CCC1CN1CCN(c2cccc3[nH]ccc23)CC1 (stereo not drawn) [Example 68A30, 1-[1-[2-(4-Chlorophenyl)acetyl]-1,2,3,4-tetrahydroquinoline-2-ylmethyl]-4-(4-indolyl)piperazine] | 23.8
30 | CCCCCNC(=O)N1c2ccccc2CCC1CN1CCN(c2cccc3[nH]ccc23)CC1 (stereo not drawn) [Example 69A11, 1-(4-Indolyl)-4-(1-pentylaminocarbonyl-1,2,3,4-tetrahydroquinoline-2-ylmethyl]piperazine] | 10.4
31 | O=C(CCCOc1ccccc1)N1c2ccccc2CCC1CN1CCN(c2nccc3ccccc23)CC1 (stereo not drawn) [Example 75A11, 1-(1-Isoquinolinyl)-4-[1-(4-phenoxybutanoyl)-1,2,3,4-tetrahydroquinolin-2-ylmethyl]piperazine] | 17.1
32 | O=C(C1CCCCC1)N1c2ccc(OC(F)(F)F)cc2CCC1CN1CCN(c2cccc3[nH]ccc23)CC1 (stereo not drawn) [Example 26, 1-(1-Cyclohexanecarbonyl-6-trifluoromethoxy-1,2,3,4-tetrahydroquinoline-2-ylmethyl)-4-(4-indolyl)piperazine] | 47.9
33 | N#CNCCC(=O)N1c2ccccc2CCC1CN1CCN(c2cccc3[nH]ccc23)CC1 (stereo not drawn) [Example 54, 1-[1-(3-Cyanominopropionyl)-1,2,3,4-tetrahydroquinoline-2-ylmethyl]-4-(4-indolyl)piperazine] | 51
